One molecule from patent publication US20080095822A1, “Active Substance Delivery System Comprising A Hydrogel Atrix And Microcarriers” (UNIVERSITE DE LIEGE, priority 2004, published 2008) can be followed below.

The nature of the series: release of LNG from PHEMA hydrogel matrix into purified water (HPLC-UV). In kind it is physicochemical. The settings on record: LNG directly in matrix, after 10 days, purified water 37° C.

As to `C#C[C@]1(O)CC[C@H]2[C@@H]3CCC4=CC(=O)CC[C@@H]4[C@H]3CC[C@@]21CC` [LNG, levonorgestrel], the “release rate after stabilisation” value is reported as “around 10 μg/day”.
